Test results from PubChem BioAssay (NCI).
Values joined by “and” are separate entries in the source; they are usually repeats but may differ in a detail not shown here. Equal entries are not always repeated.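 Briefly, cells in 96-well plates were exposed to five compound concentrations for 48 h, and endpoints were estimated by linear interpolation. GI50 marks 50% less growth. The concentration for full growth arrest is given as TGI.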

Experiments:
Assay in all cases: NCI-60 cell line screen, 48 h
T-47D breast = test system: T-47D breast
UACC-257 melanoma = test system: UACC-257 melanoma
IGROV1 ovarian = test system: IGROV1 ovarian
SF-268 CNS = test system: SF-268 CNS
K-562 leukemia = test system: K-562 leukemia
OVCAR-5 ovarian = test system: OVCAR-5 ovarian
A549 NSCLC = test system: A549 NSCLC
LOX IMVI melanoma = test system: LOX IMVI melanoma
MDA-MB-435 = test system: MDA-MB-435
NCI-H23 lung = test system: NCI-H23 lung

Row | SMILES | GI50 (T-47D breast) | TGI (T-47D breast) | GI50 (UACC-257 melanoma) | TGI (UACC-257 melanoma) | GI50 (IGROV1 ovarian) | TGI (IGROV1 ovarian) | GI50 (SF-268 CNS) | TGI (SF-268 CNS) | GI50 (K-562 leukemia) | TGI (K-562 leukemia) | GI50 (OVCAR-5 ovarian) | TGI (OVCAR-5 ovarian) | GI50 (A549 NSCLC) | TGI (A549 NSCLC) | GI50 (LOX IMVI melanoma) | TGI (LOX IMVI melanoma) | GI50 (MDA-MB-435) | TGI (MDA-MB-435) | GI50 (NCI-H23 lung) | TGI (NCI-H23 lung)
1 | O=C1OCC2=C1C(c1ccc(Cl)c(Cl)c1)c1cc3c(cc1N2CCO)CCC3 (stereo not given) | 0.25 µM | 20.6 µM | 0.151 µM | 15.7 µM | 0.555 µM | 17.8 µM | 0.343 µM | 9.34 µM | 0.204 µM | 9.71 µM | 0.336 µM | 15.3 µM | 0.195 µM | 8.04 µM | 0.303 µM | 10.3 µM | 0.0611 µM | 0.183 µM | 0.239 µM | 12.2 µM
2 | COc1cc2c(cc1Nc1nc(Nc3cccc(F)c3C(N)=O)c3cc[nH]c3n1)N(C(=O)CN1CCN(C(C)C)CC1)CC2 | 3.23 µM | 6.54 µM | 2.98 µM | 6.3 µM | 4.5 µM | 10.2 µM | 3.98 µM | 8.34 µM | 4.67 µM | 11 µM | 2.82 µM | 7.35 µM | 3.48 µM | 7.19 µM | 3.49 µM | 7.03 µM | 3.12 µM | 6.98 µM | 3.36 µM | 7.05 µM
3 | O=C(Nc1ccccc1)c1cc(S(=O)(=O)Nc2nc3ccccc3o2)c(SCc2ccccc2)cc1Cl | 22.5 µM | 91.3 µM | 19.6 µM | 38.6 µM | 17.9 µM | 36.7 µM | 15.4 µM | 41.4 µM | 20.5 µM | 68.7 µM | 22.5 µM | 43.3 µM | 21 µM | 53.8 µM | 20 µM | 40.3 µM | 19 µM | 37.7 µM | 21.2 µM | 44.9 µM
4 | Cc1c(O)c2c(c(O)c1Br)C(=O)C=CC2=O | – | 2.01 µM | 0.924 µM | 2.52 µM and 2.22 µM | – | 3.05 µM and 3.56 µM | – | 4.63 µM and 6.51 µM | 0.0599 µM | 0.66 µM and 0.334 µM | 1.95 µM | 3.19 µM and 3.92 µM | 4.14 µM | 4.47 µM and 29.4 µM | 0.215 µM | 1.54 µM and 0.703 µM | – | 0.451 µM | 1.48 µM | 2.09 µM and 3.28 µM
5 | NCC1OC(OC2C(CO)OC(OC3C(O)C(N)CC(N)C3OC3OC(CO)C(O)CC3N)C2O)C(N)C(O)C1OC1OC(CO)C(O)C(O)C1O (stereo not given) | > 50 µg/mL | > 50 µg/mL | > 50 µg/mL | > 50 µg/mL | > 50 µg/mL | > 50 µg/mL | > 50 µg/mL | > 50 µg/mL | > 50 µg/mL | > 50 µg/mL | > 50 µg/mL | > 50 µg/mL | > 50 µg/mL | > 50 µg/mL | > 50 µg/mL | > 50 µg/mL | > 50 µg/mL | > 50 µg/mL | > 50 µg/mL | > 50 µg/mL
6 | CC(=O)OC1CC2C3CCC4C[C@@H](NC(=O)C=C(C)C)CC[C@]4(C)C3CC[C@]2(C)[C@H]1C(C)N(C)C (stereo not given in full) | 1.55 µM | 6.08 µM | 2.18 µM | 4.5 µM | 1.28 µM | 6.5 µM | 1.58 µM | 3.4 µM | 0.509 µM | 2.22 µM | 3.46 µM | 10.4 µM | 2.39 µM | 6.99 µM | 1.07 µM | 2.53 µM | 2.17 µM | 4.82 µM | 2.55 µM | 8.56 µM
7 | COc1ccc(Nc2cc(C)nc(NCCCNc3ccnc4cc(Cl)ccc34)n2)cc1 | 1.68 µM | 3.69 µM | 1.84 µM | 3.51 µM | 2.25 µM | 6.09 µM | 1.8 µM | 3.61 µM | 0.495 µM | 2.28 µM | 2.35 µM | 6.69 µM | 1.91 µM | 3.86 µM | 1.4 µM | 2.85 µM | 1.35 µM | 2.64 µM | 2.27 µM | 5.78 µM
8 | O=C(Nc1n[nH]c2nnc(-c3cccnc3)cc12)C1CC1 | > 12.9 µM | > 25 µM | > 17.4 µM | > 25 µM | > 11.7 µM | > 25 µM | > 11.8 µM | > 25 µM | 1.74 µM | > 25 µM | > 17.8 µM | > 25 µM | > 20.7 µM | > 25 µM | 6.99 µM | > 25 µM | > 11.3 µM | > 25 µM | > 15.9 µM | > 25 µM
9 | N#C[Se]CCCNS(=O)(=O)C1CC2C=CC1C2 (stereo not given) | 2.55 µM | 8.28 µM | 0.648 µM | 3.09 µM | 0.383 µM | 1.65 µM | 0.301 µM | 0.916 µM | 1.78 µM | > 41.6 µM | 0.828 µM | 5.13 µM | 0.601 µM | 2.63 µM | 0.186 µM | 0.376 µM | 0.361 µM | 1.31 µM | 1.16 µM | 4.63 µM
10 | O=C(c1ccco1)c1c(C(F)(F)F)n([O-])c2ccc(Cl)cc2[n+]1=O | 1.41 µM | 3.55 µM | 1.31 µM | 3.08 µM | 0.404 µM | – | 1.61 µM | 3.18 µM | 0.116 µM | 5.1 µM | 1.47 µM | 2.86 µM | 0.615 µM | 2.44 µM | 0.0951 µM | 0.287 µM | 1.9 µM | 7.66 µM | 0.82 µM | 2.55 µM
